Laboratory results reported in US7429607B2, “5-HT2B receptor antagonists” (Asterand UK Limited, priority 2002, dated 2008).

Key:
[1] = target: T1, human cloned 5-HT2B receptors (Homo sapiens, UniProt P41595); assay: Human cloned 5-HT2B receptor binding assay ([3H]LSD, CHO-K1 membranes); details: displacement of [3H]LSD (1 nM), read-out: 5-HT2B pKi (converted)
T1 construct: expressed in transfected cells; host or cells: CHO-K1 cells
Experimental: The binding affinity of the compounds for human cloned 5-HT2B receptors was determined using the following assay.
CHO-K1 cells expressing cloned 5-HT2B receptor were maintained in Ultra-CHO medium containing 400 μg/ml of G418, 100 U/ml penicillin, 100 μg/ml streptomycin, 2.5 μg/ml fungizone and 1% foetal bovine serum, in 95/5% O2/CO2 at 37° C. The cells were harvested using 0.25% trypsin and were centrifuged at 800 rpm for 8 minutes. The cells were homogenised in 50 mM HEPES buffer containing 1 mM disodium EDTA and 1 mM PMSF at pH 7.4, using a Dounce homogeniser (20 strokes). The homogenate was centrifuged at 2280 rpm (1000 g) and 4° C. for 10 minutes, after which the supernatant was removed by decanting. The pellet was re-homogenised as above, and the resulting supernatant removed and combined with that already obtained. The supernatant solution was then centrifuged at 18300 rpm (40000 g) for 10 minutes at 4° C. using a Sorvall centrifuge. The supernatant was removed, and the pellet was re-suspended in 50 mM buffer at pH 7.4 using a Ultra-turrax T25 Polytron, before centrifugation again at 40000 g as above. This wash procedure was repeated, after which the membrane preparation was stored at a concentration of 1 mg/ml at −80° C. until use.
The membranes were thawed rapidly and diluted in assay buffer containing Tris-HCl (50 mM, pH 7.4), ascorbic acid (0.1%) and calcium chloride (4 mM). The membranes were homogenised to resuspend them, prior to adding 10 or 15 μg of membranes to assay wells containing [^3H]LSD (1 nM), assay buffer (50 mM Tris, 4 mM calcium chloride and 0.1% ascorbic acid) containing pargyline (10 μM), and the test compounds (1×10^−10 to 1×10^−4M). Non specific binding was determined in the presence of 100 μM 5-HT. After 30 minutes incubation at 37° C., the assay mixture was filtered through a combination of GF-C and GF-B filters, pre-soaked in 1% polyethyleneimine, using a Brandel cell harvester, and were washed three times using 50 mM Tris-HCl. Radioactivity retained on the filters was determined by liquid scintillation counting. For each test compound, the concentration that inhibited binding of [3H]LSD by 50% was determined using curve fitting software (Prism). Kd values (concentration of LSD required to occupy 50% of the receptor binding sites at equilibrium) determined from saturation binding studies were then used to calculate inhibition dissociation constants (Ki) using the following equation: […]
This approach follows that set out in Kenakin, T.P. Pharmacologic analysis of drug-receptor interaction. Raven Press, New York, 2nd Edition.

[2] = target: T1, human cloned 5-HT2B receptors; assay: Human cloned 5-HT2B cell-based functional assay (Fluo-4, CHO.K1 cells); details: inhibition of 5-HT response, CHO.K1 cells expressing cloned 5-HT2B, Fluo-4 AM
Experimental: The following describes an in vitro functional assay using human cloned 5-HT2B receptors to determine the ability of compounds to block the receptor. CHO.K1 cells expressing cloned 5-HT2B receptor were maintained In Ultra-CHO medium containing 400 μg/ml of G418, 100 U/ml penicillin, 100 μg/ml streptomycin, 2.5 μg/ml fungizone, in 95/5% O2/CO2 at 37° C. Ultra-CHO medium additionally supplemented with 1% foetal bovine serum was used when seeding the cells and removed after 5 hours. Cells were plated in Costar 96 well white, clear-bottomed plate at a density of 50,000 cells per well and incubated for at least 24 hours in 95/5% O2/CO2 at 37° C. before running the assay. Media was removed from the wells and 200 μl of 4 μM Fluo-4 AM added, this was incubated in a Wallace Victor 2V workstation at 37° C. for 30 minutes. The Fluo-4 AM was then removed from the wells, which were then washed twice with 200 μl of buffer (HBSS without calcium/magnesium/phenol red, 20 mM HEPES, 1 mM Ca^2+, 1 mM Mg^2+, 2.5 mM probenecid, pH to 7.4), 180 μl of buffer or test compound was added to the well and incubated for 30 minutes. The Victor 2V injectors were used to inject 20 μl of 5-HT after obtaining 10 0.1-second baseline readings at 535 nm, followed by 150 readings. All test compounds were aliquoted in 100% DMSO at 10 mM and diluted to 1 mM in 50% DMSO, subsequent dilutions were made using buffer. Buffer was also used to dilute the 5-HT. Data were analysed using Microsoft Excel and GraphPad Prism, with the latter used to produce sigmoidal dose-response curves for each compound. The compound concentration that inhibited the 5-HT response by 50% was taken (IC50-M), and the results are shown in Table 3, as pIC50, being the negative log (to the base 10) of the measured IC50 values.

T1 sequence (P41595 whole entry): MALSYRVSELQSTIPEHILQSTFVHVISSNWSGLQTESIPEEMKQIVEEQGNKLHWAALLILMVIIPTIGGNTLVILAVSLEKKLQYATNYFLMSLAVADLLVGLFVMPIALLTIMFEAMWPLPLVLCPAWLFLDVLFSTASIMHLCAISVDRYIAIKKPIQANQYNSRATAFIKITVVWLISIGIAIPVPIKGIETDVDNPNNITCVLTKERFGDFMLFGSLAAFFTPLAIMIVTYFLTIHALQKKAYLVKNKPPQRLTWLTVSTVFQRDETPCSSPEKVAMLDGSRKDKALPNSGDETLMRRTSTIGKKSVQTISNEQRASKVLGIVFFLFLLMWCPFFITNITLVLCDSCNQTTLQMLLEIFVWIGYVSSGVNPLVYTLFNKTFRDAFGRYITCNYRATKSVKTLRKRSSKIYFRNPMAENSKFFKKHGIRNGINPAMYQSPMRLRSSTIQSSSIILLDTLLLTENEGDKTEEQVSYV

SMILES | Ki [1] | IC50 [2]
CC(C)c1nc(N)oc1-c1cccc2ccccc12 [Compound 7, 2-amino-4-isopropyl-5-(naphth-1-yl)oxazole] | < 10 nM | < 10 nM
CC(C)c1nc(N)oc1-c1ccc(F)c2ccccc12 [Compound 31, 2-amino-5-(4′-fluoronaphth-1-yl)-4-isopropyloxazole] | < 10 nM | < 10 nM
Nc1nc(-c2cccc3ccccc23)co1 [Compound 1, 2-amino-4-(naphth-1-yl)oxazole] | < 100 nM | < 100 nM
COc1ccc2ccccc2c1-c1coc(N)n1 [Compound 17, 4-(2-methoxy-naphthalen-1-yl)-oxazol-2-ylamine] | < 10 nM | < 10 nM
Cc1ccc2ccccc2c1-c1coc(N)n1 [Compound 6, 2-amino-4-(2′-methylnaphth-1-yl)oxazole] | < 10 nM | < 100 nM
